Measurements from patent publication US6900315B2, “2-amino-9H-purin-9-yl compounds and methods for inhibiting/treating HIV infections and AIDS related symptoms” (Yale University, priority 2001, dated 2005).
Like-named read-outs stand apart in the source and are kept apart here.

Tests used:
MT-2 = experiment: Toxicity, dye based cell growth assay in absence of HIV, MT-2; conditions: Homo sapiens, MT2, 120 h, read-out: IC50 (inhibited 50% of the cell growth); MT-2, HTLV infected T cell line, 5 days
Protocol: (§1) To determine the toxicity of the compounds to various cell lines (Table 1, below), a similar dye based assay is performed in the absence of HIV. The toxicity of the compounds alone therefore was determined.

HeLa = experiment: Toxicity, dye based cell growth assay, HeLa; conditions: Homo sapiens, 120 h, read-out: IC50 (inhibited 50% of the cell growth), cervical cancer cell line, 5 days
Protocol: as §1

HIV [1] = conditions: cited from earlier work
KB = experiment: Toxicity, dye based cell growth assay, KB; conditions: Homo sapiens, 120 h, read-out: IC50 (inhibited 50% of the cell growth), oral carcinoma, 5 days
Protocol: as §1

CEM = experiment: Toxicity, dye based cell growth assay, CEM; conditions: Homo sapiens, CCRF-CEM, 120 h, read-out: IC50 (inhibited 50% of the cell growth); CEM, T cell line, 5 days
Protocol: as §1

[2] = tested on: mitochondrial DNA in CEM cells; experiment: Mitochondrial toxicity: ratio of mitochondrial DNA to Alu repeat in CEM cells; assay type: cell-based; conditions: human, 8 days
Excerpt: After 8 days of growth the cells were lysed and probed for the amount of mitochondrial DNA and normalized for differences in the amount of total DNA by probing for the Alu repeat. By comparing the amount of mitochondrial DNA to the amount of Alu repeat the % decrease in mitochondrial DNA in the presence of various concentrations of drug can be obtained. All experiments were done in triplicate. Techniques which are presented here have been previously described in Chen and Cheng, J. Biol. Chem., vol. 264, 11934-7 (1989).

HEP-G2 = experiment: Toxicity, dye based cell growth assay, HEP-G2; conditions: Homo sapiens, HepG2, 120 h, read-out: IC50 (inhibited 50% of the cell growth); HEP-G2, hepatoma cell line, 5 days
Protocol: as §1

HIV IIIB = experiment: Anti-HIV activity in MT-2 cells infected with HIV IIIB, MTT dye cell viability; assay type: cell-based; conditions: for anti-HIV activity: summary of Table 1
Protocol: To assess the ability of the compounds according to the present invention to inhibit viral infection relative to other compounds experiments were performed in the MT-2 cell line, as previously described by Larder, et al., Antimicrobial Agents & Chemotherapy, vol. 34, 436 (1990). […] Cells were infected at an initial multiplicity of infection (MOI) of 0.1 and grown for 5 days. Cell viability was assessed by the use of dye metabolized by viable cells.

[3] = target: T1, wild type HIV-1 reverse transcriptase (Human immunodeficiency virus type 1 group M subtype B, UniProt P04585); experiment: Kinetics of nucleotide incorporation by wild type HIV-1 reverse transcriptase; assay type: biochemical; set-up: kpol/Kd: unit not given here
T1 construct: a mixture of 100 nM HIV-1 reverse transcriptase and 300 nM primer/template
Protocol: Continued research on the guanosine prodrug approach for making D4G a viable anti-HIV agent has yielded a number of new findings. In the present example, enzyme kinetics for the incorporation of the active metabolites of guanosine prodrugs with wild type HIV-1 reverse transcriptase was determined. In this experiment, a mixture of 100 nM HIV-1 reverse transcriptase and 300 nM primer/template in which the correct base incorporation is a guanine nucleotide was rapidly mixed with nucleotide in the presence of 50 mM Tris, 50 mM NaCl and 10 mM MgCl2 for a set amount of time and then the reaction was stopped by the addition 300 mM of EDTA.

[4] = target: T2, mitochondrial polymerase gamma (Homo sapiens, UniProt P54098); experiment: Exonuclease removal from chain terminated primer template by mitochondrial polymerase gamma; assay type: biochemical
T2 sequence (P54098 1-1239): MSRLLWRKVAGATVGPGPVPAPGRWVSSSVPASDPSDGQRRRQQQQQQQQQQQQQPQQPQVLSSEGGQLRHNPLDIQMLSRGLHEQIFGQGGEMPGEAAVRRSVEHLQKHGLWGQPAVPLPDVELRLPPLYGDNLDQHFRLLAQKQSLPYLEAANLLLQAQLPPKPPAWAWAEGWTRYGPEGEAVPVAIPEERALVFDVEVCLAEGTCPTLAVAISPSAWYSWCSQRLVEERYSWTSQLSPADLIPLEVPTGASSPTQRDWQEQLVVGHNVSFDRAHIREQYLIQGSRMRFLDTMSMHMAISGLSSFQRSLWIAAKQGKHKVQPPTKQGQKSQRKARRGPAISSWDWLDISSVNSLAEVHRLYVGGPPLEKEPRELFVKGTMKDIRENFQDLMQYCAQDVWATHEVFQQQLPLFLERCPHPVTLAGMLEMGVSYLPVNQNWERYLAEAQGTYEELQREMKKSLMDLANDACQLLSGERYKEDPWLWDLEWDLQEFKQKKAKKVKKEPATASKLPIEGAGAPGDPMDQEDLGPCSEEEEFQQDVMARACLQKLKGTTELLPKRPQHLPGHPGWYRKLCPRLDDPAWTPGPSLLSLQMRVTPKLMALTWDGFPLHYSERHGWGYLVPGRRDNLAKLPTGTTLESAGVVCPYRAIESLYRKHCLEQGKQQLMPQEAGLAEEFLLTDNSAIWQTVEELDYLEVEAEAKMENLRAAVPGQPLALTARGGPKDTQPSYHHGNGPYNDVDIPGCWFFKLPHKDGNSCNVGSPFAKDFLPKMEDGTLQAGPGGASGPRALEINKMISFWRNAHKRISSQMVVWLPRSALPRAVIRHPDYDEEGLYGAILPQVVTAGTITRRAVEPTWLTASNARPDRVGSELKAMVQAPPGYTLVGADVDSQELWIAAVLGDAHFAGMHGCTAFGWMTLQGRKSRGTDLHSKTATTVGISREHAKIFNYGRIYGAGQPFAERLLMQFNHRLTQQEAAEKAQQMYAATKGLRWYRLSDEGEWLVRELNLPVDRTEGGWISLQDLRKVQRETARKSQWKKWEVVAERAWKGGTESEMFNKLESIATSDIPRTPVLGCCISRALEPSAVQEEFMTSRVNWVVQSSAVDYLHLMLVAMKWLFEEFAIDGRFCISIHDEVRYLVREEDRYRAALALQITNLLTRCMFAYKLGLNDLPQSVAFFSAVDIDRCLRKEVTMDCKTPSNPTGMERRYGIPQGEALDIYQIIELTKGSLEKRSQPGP

[5] = target: T2, mitochondrial polymerase gamma; experiment: Nucleotide incorporation by mitochondrial polymerase gamma into an elongating DNA strand; assay type: biochemical; conditions: for Kd / kpol / kpol/Kd: mitochondrial polymerase gamma, incorporation
[6] = target: T2, mitochondrial polymerase gamma; conditions: cited from earlier work
[7] = target: T2, mitochondrial polymerase gamma; conditions: exonuclease; from Johnson et al.; cited from earlier work
[8] = target: T1, wild type HIV-1 reverse transcriptase; conditions: from Ray and Anderson or Furman et al., cited from earlier work
HIV [9] = experiment: Effect of mycophenolic acid on anti-HIV activity of nucleoside analogs in cell culture; assay type: cell-based
Protocol: FIG. 2 presents table 6 and indicates the effect that mycophenolic acid has on the anti-HIV activity of the indicated nucleoside analogs. In the experiment depicted in this Figure, 1×10^5 cells/ml were incubated with or without 200 nM mycophenolic acid for 30 minutes and then added to wells containing nucleoside analogs to test for toxicity and anti-HIV activity. The date presented is representative of at least two independent trials.
In cell culture, the mechanism of activation for D4G prodrugs has been investigated with the initial model compound cyclo D4G. […] Experiments with mycophenolic acid, an inhibitor of inosine monophosphate (IMP) dehydrogenase have been used to study the guanine dependence of activation for cyclo D4G. The addition of mycophenolic acid results in an increase in cellular IMP and a decrease in GMP and all other guanine containing nucleosides and nucleotides. […]. The data which is presented is representative of at least two independent trials. Furthermore, cyclo D4G's activity could be rescued by the addition of guanine to the media (data not shown).

HIV [10] = experiment: Anti-HIV drug combination (synergy, isobologram of FEC50) in cell culture; assay type: cell-based
Protocol: Points on this line represent the compounds working independently.
In an attempt to understand how D4G prodrugs of the present invention would interact with other clinically approved compounds, experiments were performed with drug combinations. […] Points on the line represent two compounds working independently. […] See, Bridges, et al., Biochem. Pharmacol., 51, 731 (1996) and Dutschman, et al., Antimicro. Agents Chemother. 42, 1799 (1998).

[11] = Table 4, primer/template DNA/DNA, RT WT
[12] = Table 4, primer/template DNA/RNA, RT WT
[13] = mitochondrial polymerase gamma, from Johnson et al.

| SMILES | IC50 (MT-2) | IC50 (HeLa) | previously reported activity against HIV (HIV [1]) | IC50 (KB) | IC50 (CEM) | % Control (mtDNA/Alu) ([2]; 1 μM) | Ration of mtDNA/Alu ([2]; 1 μM) | % Control (mtDNA/Alu) ([2]; 10 μM) | Ration of mtDNA/Alu ([2]; 10 μM) | IC50 (HEP-G2) | anti-HIV activity (HIV IIIB) | Efficiency [3, 11] | Kd [3, 11] | kpol [3, 11] | Efficiency [3, 12] | Kd [3, 12] | kpol [3, 12] | kexo [4] | Kd [5] | kpol [5] | other results |
| --- | --- | --- | --- | --- | --- | --- | --- | --- | --- | --- | --- | --- | --- | --- | --- | --- | --- | --- | --- | --- | --- |
| Nc1nc2c(ncn2[C@H]2C=C[C@@H](CO)O2)c(=O)[nH]1 [d4G, 9-(2,3-Dideoxy-β-D-glycero-pent-2-enofuranosyl)guanine] | 40 ± 9 µM | 200 ± 13 µM | inactive | > 500 µM | 70 ± 11 µM | 105% | 1.12 ± 0.17 | 106% | 1.14 ± 0.07 | 280 ± 19 µM | complete inactivity | – | – | – | – | – | – | – | – | – | – |
| Nc1nc2c(ncn2[C@H]2C=C[C@@H](COP(=O)(O)OP(=O)(O)OP(=O)(O)O)O2)c(=O)[nH]1 [D4GTP] | – | – | – | – | – | – | – | – | – | – | – | 1.1 ± 0.3 s^−1μM^−1 | 11 ± 2 µM | 11 ± 1 s⁻¹ | 1.4 ± 0.2 s^−1μM^−1 | 9.5 ± 1.1 µM | 13 ± 0.5 s⁻¹ | 0.00046 ± 0.000021 s⁻¹ | 0.61 ± 0.13 µM | 0.27 ± 0.02 s⁻¹ | Kd ([3]; Table 3, substrate DNA/DNA): 11 ± 2 µM; Selectivity = (kpol/Kd)dGTP/(kpol/Kd)analog ([3]; Table 3, substrate DNA/DNA): 1.5; kpol ([3]; Table 3, substrate DNA/DNA): 11 ± 1 s⁻¹; kpol/Kd ([3]; Table 3, substrate DNA/DNA): 1.1 ± 0.26; Kd ([3]; Table 3, substrate DNA/RNA): 9.5 ± 1.1 µM; Selectivity = (kpol/Kd)dGTP/(kpol/Kd)analog ([3]; Table 3, substrate DNA/RNA): 2; kpol ([3]; Table 3, substrate DNA/RNA): 13 ± 0.5 s⁻¹; kpol/Kd ([3]; Table 3, substrate DNA/RNA): 1.4 ± 0.2; Selectivity = efficiency dGTP/efficiency analog [3, 11]: 2; Selectivity = efficiency dGTP/efficiency analog [3, 12]: 2; Toxicity Index ([5]; fold increase in time for mitochondrial replication, 1 = no toxicity): 320; kpol/Kd [5]: 450000 ± 99000 M⁻¹ s⁻¹ |
| Nc1nc2c(ncn2[C@H]2C=C[C@@H](CO)C2)c(=O)[nH]1 [carbovir] | – | – | significant activity | – | – | – | – | – | – | – | – | – | – | – | – | – | – | – | – | – | – |
| Cc1cn([C@H]2C=C[C@@H](COP(=O)(O)OP(=O)(O)OP(=O)(O)O)O2)c(=O)[nH]c1=O [D4TTP] | – | – | – | – | – | – | – | – | – | – | – | – | – | – | – | – | – | – | – | – | Toxicity Index [6]: 3,120; Discrimination [6, 13]: 7.4; Kd [6, 13]: 0.045 ± 0.0075 µM; kpol [6, 13]: 0.24 ± 0.01 s⁻¹; kpol/Kd [6, 13]: 5.4e+06 ± 930000 M⁻¹ s⁻¹; kexo [7]: 0.0004 s⁻¹ |
| Nc1nc2c(ncn2[C@H]2C[C@H](O)[C@@H](COP(=O)(O)OP(=O)(O)OP(=O)(O)O)O2)c(=O)[nH]1 [DGTP] | – | – | – | – | – | – | – | – | – | – | – | 1.7 ± 0.3 s^−1μM^−1 | 14 ± 2 µM | 24 ± 1 s⁻¹ | 3.1 ± 0.6 s^−1μM^−1 | 11 ± 2 µM | 35 ± 2 s⁻¹ | 0.019 ± 0.0019 s⁻¹ | 1.4 ± 0.3 µM | 175 ± 10 s⁻¹ | Kd ([8]; Table 3, substrate DNA/DNA): 14 ± 2 µM; Selectivity = (kpol/Kd)dGTP/(kpol/Kd)analog ([8]; Table 3, substrate DNA/DNA): 1; kpol ([8]; Table 3, substrate DNA/DNA): 24 ± 1 s⁻¹; Kd ([8]; Table 3, substrate DNA/RNA): 11 ± 2 µM; Selectivity = (kpol/Kd)dGTP/(kpol/Kd)analog ([8]; Table 3, substrate DNA/RNA): 1; kpol ([8]; Table 3, substrate DNA/RNA): 35 ± 2 s⁻¹; kpol/Kd [5]: 1.3e+08 ± 3e+07 M⁻¹ s⁻¹ |
| Nc1nc(NC2CC2)c2ncn([C@H]3C=C[C@@H](CO)O3)c2n1 [Cd4G, 2-Amino-6-cyclopropylamino-9-(2,3-dideoxy-β-D-glycero-pent-2-enofuranosyl)purine] | 100 ± 22 µM | 500 ± 33 µM | – | > 500 µM | 200 ± 31 µM | 99% | 1.06 ± 0.11 | 84% | 0.90 ± 0.06 | > 500 µM | strong anti-HIV activity | – | – | – | – | – | – | – | – | – | fold less active (anti-HIV) in the presence of mycophenolic acid (HIV [9]; 200 nM mycophenolic acid, 30 minutes, 1×10^5 cells/ml): 3 fold; anti-HIV activity on addition of guanine to the media (HIV [9]; in the presence of mycophenolic acid, data not shown): rescued; mitochondrial toxicity [2]: lower mitochondrial toxicity than D4T; % Control (mtDNA/Alu) ([2]; 200 μM): 43%; Ration of mtDNA/Alu ([2]; 200 μM): 0.46 ± 0.06; anti-HIV interaction in combination with 3TC (HIV [10]; FIG. 3 and FIG. 4): synergistic; anti-HIV interaction in combination with D4T (HIV [10]; FIG. 4): somewhat synergistic; anti-HIV interaction in combination with AZT (HIV [10]; FIG. 4, D4T with AZT data not shown): synergistic; EC50 (HIV IIIB; Human immunodeficiency virus 1, IIIB, MT2, 120 h, read-out: EC50 (concentration necessary to save 50% of the cells)): 8 µM |
